The values that follow come from ChEMBL document CHEMBL1155026, “Biaryl and heteroaryl derivatives of SCH 58261 as potent and selective adenosine A2A receptor antagonists” (Bioorg Med Chem Lett, 2008).

Structures are written as SMILES. Converted amounts (≈) assume the structure as drawn.

For series [1], the target named is Adenosine receptor A2a (Homo sapiens, UniProt P29274).
Description: Antagonist activity at human adenosine A2A receptor
Series [2] can be described thus: AUC (0 to 6 hrs) in rat at 3 mg/kg, po. More on the design: time < 6 hr, dose 3 mg/kg, route oral. In kind it is ADME, organism-based. Conditions: plasma.
Series [3] in a line: Kinetic solubility of compound at pH 7.4 by nephelometry. In kind it is physicochemical. Conditions: buffer.
Series [4] has as its system Rattus norvegicus. As to the kind of experiment: Inhibition of haloperidol-induced catalepsy in rat at 3 mg/kg, po after 1 hr. Type of series: functional.
The subject of series [5] is Rattus norvegicus. Briefly: Inhibition of haloperidol-induced catalepsy in rat at 3 mg/kg, po after 4 hrs. In kind it is functional.
The test system of series [6] is Rattus norvegicus. As to the kind of experiment: Inhibition of haloperidol-induced catalepsy in rat at 1 or 3 mg/kg, po after 1 hr. In kind it is functional.
The subject of series [7] is Rattus norvegicus. As to the kind of experiment: Inhibition of haloperidol-induced catalepsy in rat at 1 or 3 mg/kg, po after 4 hrs. Type of series: functional.
The test system of series [8] is Rattus norvegicus. Briefly: Inhibition of haloperidol-induced catalepsy in rat at 1 mg/kg, po after 1 hr. In kind it is functional.
Series [9] concerns Rattus norvegicus. As to the kind of experiment: Inhibition of haloperidol-induced catalepsy in rat at 1 mg/kg, po after 4 hrs. Type of series: functional.

As a reminder, the Ki is the dissociation constant of the complex between target and ligand, obtained from inhibition or displacement. Read a high Ki as weaker binding. As usually defined, the AUC(0-t) is exposure summed from dosing to a finite time, without extrapolation to infinity. Higher therefore signals more exposure. Broadly, the solubility (kinetic) is the concentration staying in solution when a stock, usually in DMSO, is diluted into the medium. In general, inhibition in vivo refers to the percentage by which the read-out fell short of the control.

Sequence of Adenosine receptor A2a (P29274 whole entry): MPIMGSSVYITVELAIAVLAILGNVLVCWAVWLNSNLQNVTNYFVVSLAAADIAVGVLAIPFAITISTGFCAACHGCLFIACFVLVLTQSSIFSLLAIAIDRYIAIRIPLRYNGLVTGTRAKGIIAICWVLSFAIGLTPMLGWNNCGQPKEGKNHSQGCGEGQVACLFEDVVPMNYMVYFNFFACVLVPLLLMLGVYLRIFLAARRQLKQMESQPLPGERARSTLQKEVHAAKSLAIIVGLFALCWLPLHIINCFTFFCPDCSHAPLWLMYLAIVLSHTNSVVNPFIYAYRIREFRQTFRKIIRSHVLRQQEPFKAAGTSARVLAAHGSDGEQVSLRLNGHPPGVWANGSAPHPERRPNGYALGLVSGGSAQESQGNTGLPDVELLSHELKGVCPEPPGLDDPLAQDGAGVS

The molecule `Nc1nc2c(cnn2CCc2ccc(-c3ccccc3)cc2)c2nc(-c3ccco3)nn12` had a Ki in series [1] of 1.1 nM.
In series [2], `Nc1nc2c(cnn2CCc2ccc3nc(N4CCOCC4)ccc3c2)c2nc(-c3ccco3)nn12` registered an exposure AUC(0-t) at 6 h of 6 ng·h/mL. The molecule also gave a Ki in series [1] of 1.8 nM.
As to `CCc1ccc2cc(CCn3ncc4c3nc(N)n3nc(-c5ccco5)nc43)ccc2n1`, in [3], the solubility (kinetic) is less than 2.5 µM. Also, in series [2], the AUC(0-t) at 6 h amounted to 450 ng·h/mL. Besides, the inhibition in vivo at 3 mg/kg in [4] stood at 43%; in [5], 38%. The same molecule displayed an inhibition constant (Ki) in series [1] of 2.7 nM.
In the case of `Nc1nc2c(cnn2CCc2ccc3nc(C(=O)N4CCOCC4)ccc3c2)c2nc(-c3ccco3)nn12`, the solubility (kinetic) in series [3] worked out at 100 µM (≈ 51 µg/mL). Moreover, the values for the inhibition in vivo at 3 mg/kg in series [4] and in series [5] were 23% and 13%, respectively. Also, in series [1], the inhibition constant (Ki) came to 1.6 nM.
Turning to `Nc1nc2c(cnn2CCc2ccc3nc(CN4CCOCC4)ccc3c2)c2nc(-c3ccco3)nn12`, the AUC(0-t) at 6 h in [2] was determined as 656 ng·h/mL. Besides, the inhibition in vivo at 3 mg/kg in [4] and in series [5] was 0% throughout. In addition, in series [1], the affinity corresponds to a Ki of 2.3 nM.
For the molecule `Cc1ccc(-c2ccc(CCn3ncc4c3nc(N)n3nc(-c5ccco5)nc43)cc2)cn1`, the solubility (kinetic) in series [3] is less than 5 µM. This molecule gave an exposure AUC(0-t) at 6 h in series [2] of 199 ng·h/mL. The inhibition in vivo at 3 mg/kg stood at 60% in series [6] and 25% in series [7]. Moreover, in series [1], the Ki was found to be 0.6 nM.
Molecule `COc1ccc(-c2ccc(CCn3ncc4c3nc(N)n3nc(-c5ccco5)nc43)cc2)cn1` came in with a kinetic solubility in series [3] of less than 5 µM. In series [5], this molecule gave an inhibition in vivo at 3 mg/kg of 0%. The same molecule gave a Ki in [1] of 1.9 nM.
In turn, `Cc1ccc2cc(CCn3ncc4c3nc(N)n3nc(-c5ccco5)nc43)ccc2n1` registered a kinetic solubility in [3] of 6 µM (≈ 2.46 µg/mL). Also, the area under the curve AUC(0-t) at 6 h in series [2] was 1400 ng·h/mL. Besides, the inhibition in vivo at 3 mg/kg is 86% in [4] and 38% in [5]. The inhibition constant Ki in series [1] came to 2.4 nM.
As for `Nc1nc2c(cnn2CCc2ccc(-c3cccnc3)cn2)c2nc(-c3ccco3)nn12`, the Ki in series [1] turned out to be 11.4 nM.
For the molecule `COc1ccc(-c2ccc(CCn3ncc4c3nc(N)n3nc(-c5ccco5)nc43)cc2)cc1`, in series [3], the solubility (kinetic) was less than 5 µM. Besides, the inhibition in vivo at 1 mg/kg in series [8] came out at 30%; in [9], 5%. The inhibition constant Ki in series [1] worked out at 0.5 nM.
As for `CC(c1ccc2cc(CCn3ncc4c3nc(N)n3nc(-c5ccco5)nc43)ccc2n1)N1CCOCC1` (stereo not given), the solubility (kinetic) in series [3] is 100 µM (≈ 51 µg/mL). Further, the exposure AUC(0-t) at 6 h in series [2] is 7490 ng·h/mL. Further, the inhibition in vivo at 3 mg/kg in series [4] stood at 28%; in series [5], 13%. Also, the inhibition constant (Ki) in series [1] stood at 1.3 nM.
`Nc1nc2c(cnn2CCc2ccc(-c3cnccn3)cc2)c2nc(-c3ccco3)nn12` returned a solubility (kinetic) in [3] of less than 4 µM. In addition, in series [2], the exposure AUC(0-t) at 6 h was found to be 114 ng·h/mL. Moreover, in series [5], at 3 mg/kg the inhibition in vivo was 3%. This molecule also yielded a Ki in series [1] of 0.9 nM.
`COCCOC(C)c1ccc2cc(CCn3ncc4c3nc(N)n3nc(-c5ccco5)nc43)ccc2n1` (stereo not given) had an inhibition constant (Ki) in [1] of 1.5 nM.
In the case of `Nc1nc2c(cnn2CCc2ccc(-c3ccc(OC(F)(F)F)cc3)cc2)c2nc(-c3ccco3)nn12`, the kinetic solubility in series [3] was less than 5 µM. Besides, the AUC(0-t) at 6 h in [2] amounted to 67 ng·h/mL. Moreover, the inhibition in vivo at 3 mg/kg was 20% in [6] and 0% in [7]. Also, the Ki in series [1] came to 7.8 nM.
In [1], `Nc1nc2c(cnn2CCc2cccc(-c3cccnc3)c2)c2nc(-c3ccco3)nn12` showed an inhibition constant Ki of 5.5 nM.
In the case of `Nc1nc2c(cnn2CCc2ccc(-c3cccnc3)cc2)c2nc(-c3ccco3)nn12`, the solubility (kinetic) in series [3] is less than 4 µM. In [2], this molecule yielded an AUC(0-t) at 6 h of 351 ng·h/mL. Further, the inhibition in vivo at 1 mg/kg in [8] was found to be 40%; in [9] it was 25%. This molecule also yielded a Ki in [1] of 1.5 nM.
